Measurements from ChEMBL document CHEMBL2074018, “Digoxin up-regulates multidrug resistance transporter (MDR1) mRNA and simultaneously down-regulates steroid xenobiotic receptor mRNA” (Biochem Biophys Res Commun, 2003).

Biological target: ATP-dependent translocase ABCB1 (Homo sapiens, UniProt P08183)
Test: TP_TRANSPORTER: up-regulation of MDR1 mRNA in Caco-2 cells
Assay type: functional, cell-based

ATP-dependent translocase ABCB1, sequence (P08183 whole entry): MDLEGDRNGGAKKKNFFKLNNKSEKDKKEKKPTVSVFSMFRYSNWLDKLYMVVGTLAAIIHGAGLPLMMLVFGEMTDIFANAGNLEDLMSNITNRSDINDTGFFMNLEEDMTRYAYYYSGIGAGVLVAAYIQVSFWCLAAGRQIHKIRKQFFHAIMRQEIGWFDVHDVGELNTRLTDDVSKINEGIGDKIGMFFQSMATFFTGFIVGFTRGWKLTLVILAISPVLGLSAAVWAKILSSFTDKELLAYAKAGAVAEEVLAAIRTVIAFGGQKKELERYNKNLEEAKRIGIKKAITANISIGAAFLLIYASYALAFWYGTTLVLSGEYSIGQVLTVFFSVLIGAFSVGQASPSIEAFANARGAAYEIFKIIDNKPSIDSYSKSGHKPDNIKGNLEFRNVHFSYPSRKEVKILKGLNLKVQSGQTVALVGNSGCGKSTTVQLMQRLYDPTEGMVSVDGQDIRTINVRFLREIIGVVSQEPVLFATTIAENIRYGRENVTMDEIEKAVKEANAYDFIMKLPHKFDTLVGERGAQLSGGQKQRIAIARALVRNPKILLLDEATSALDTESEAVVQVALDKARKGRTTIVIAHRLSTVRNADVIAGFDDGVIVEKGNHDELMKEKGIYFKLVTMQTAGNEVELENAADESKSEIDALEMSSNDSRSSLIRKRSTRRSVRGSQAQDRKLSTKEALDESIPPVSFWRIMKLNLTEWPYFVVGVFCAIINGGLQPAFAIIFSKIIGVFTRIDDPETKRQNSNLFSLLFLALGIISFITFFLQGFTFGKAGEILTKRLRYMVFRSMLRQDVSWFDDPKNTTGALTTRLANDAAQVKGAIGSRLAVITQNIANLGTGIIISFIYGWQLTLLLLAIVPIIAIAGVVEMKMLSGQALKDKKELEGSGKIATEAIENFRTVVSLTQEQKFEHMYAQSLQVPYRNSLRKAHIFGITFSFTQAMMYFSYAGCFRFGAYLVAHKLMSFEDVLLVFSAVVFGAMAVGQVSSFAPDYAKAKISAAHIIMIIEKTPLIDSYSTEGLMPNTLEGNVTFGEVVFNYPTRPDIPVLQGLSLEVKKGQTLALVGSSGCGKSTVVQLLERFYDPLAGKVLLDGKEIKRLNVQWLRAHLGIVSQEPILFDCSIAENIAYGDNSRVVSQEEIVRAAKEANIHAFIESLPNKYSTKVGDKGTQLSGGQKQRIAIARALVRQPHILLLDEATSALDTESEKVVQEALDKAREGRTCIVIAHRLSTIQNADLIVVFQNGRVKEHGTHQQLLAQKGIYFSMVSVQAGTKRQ

C[C@H]1O[C@@H](O[C@H]2[C@@H](O)C[C@H](O[C@H]3[C@@H](O)C[C@H](O[C@H]4CC[C@@]5(C)[C@H](CC[C@@H]6[C@@H]5C[C@@H](O)[C@]5(C)[C@@H](C7=CC(=O)OC7)CC[C@]65O)C4)O[C@@H]3C)O[C@@H]2C)C[C@H](O)[C@@H]1O [DIGOXIN]
Activity: inducer [+]
